According to patent publication US10980798B2, “Pharmaceutical compositions of hydrophobic camptothecin derivatives” (Taiwan Liposome Company, Ltd., priority 2011, dated 2021):

How the values were obtained:
RG-2 = assay: SRB cytotoxicity assay, RG-2 glioma cell line; assay type: cell-based; settings: Homo sapiens, RG2
Source text: (§1) Human hepatoma cell lines Hep3B, HepG2, HepG2/2.2.15, Huh-7 and Sk-Hep-1, human glioblastoma cell line RG-2, and human prostate cancer cell line DU145 were maintained in DMEM (HyClone Laboratories, Logan, Utah, USA). Human prostate cancer cell line LNCap was maintained in RPMI-1640 culture medium (Sigma-Aldrich, St. Louis, Mo., USA). […] Human prostate cancer cell line PC-3 was maintained in the Ham's F-12K medium (Invitrogen, Carlsbad, Calif., USA) with the same medium supplements described in the culture medium except that the fetal bovine serum concentration was reduced to 7% by volume. Cancer cells were maintained at 37° C. in a humidified incubator (Nuaire, USA) containing 5% CO2.
(§2) The SRB assay was used for measuring cancer cell viability. The cancer cells in the plate wells were rinsed with 1× PBS and treated with 1× trypsin-EDTA (Invitrogen, Carlsbad, Calif.). The culture medium was added to dilute the trypsin-EDTA. The detached cancer cells were harvested by centrifugation and suspended in the 1 ml culture medium. Ten μl of the cell suspension was dispensed into counting chambers and the cell density was determined microscopically. The cells in 198 μl suspensions were seeded onto a 96-well cell plate (Nunc, Rochester, N.Y.) at the appropriate cell density per well and incubated in the cell culture incubator overnight.
(§3) We evaluated the ant-cancer activity of the following CPT derivatives pharmaceutical compositions: • 1. TLC388 HCl, a non-water soluble CPT derivative (obtained from ScinoPharm Taiwan Ltd., Taiwan); • 2. […]
(§4) At the end of the incubation period, cells were fixed by adding 50 μl of cold 50% TCA (w/v) (Sigma, St Louis, Mo., USA) to a final concentration of 10% TCA and further incubated at 4° C. for 60 minutes. […] Bound stain in each well was solubilized with 100 μl of 10 mM trizma base (Bioshop, Burlington, ON, Canada), and the absorbance was measured using an automated plate reader (Anthos 2001, Anthos Labtec Instrument) at 540 nm.
(§5) The graph and data were analyzed by SigmaPlot 10.0 software and Microsoft Excel 2002.

LNCap = assay: SRB cytotoxicity assay, LNCap; assay type: cell-based; settings: Homo sapiens
Source text: as §1, §2, §3, §4, §5

Hep3B = assay: SRB cytotoxicity assay, Hep3B; assay type: cell-based; settings: Homo sapiens
Source text: as §1, §2, §3, §4, §5

HCT116 = assay: SRB cytotoxicity assay, HCT116 (colon cancer); assay type: cell-based; settings: Homo sapiens, HCT-116; HCT116, incubation 72 h
Description: as §2, §3, §4, §5

HepG2 = assay: SRB cytotoxicity assay, HepG2; assay type: cell-based; settings: Homo sapiens
Source text: as §1, §2, §3, §4, §5

HT29 = assay: SRB cytotoxicity assay, HT29 (colon cancer); assay type: cell-based; settings: Homo sapiens, HT-29; HT29, incubation 72 h
Description: as §2, §3, §4, §5

HepG2/2.2.15 = assay: SRB cytotoxicity assay, HepG2/2.2.15; assay type: cell-based; settings: Homo sapiens
Source text: as §1, §2, §3, §4, §5

Sk-Hep-1 = assay: SRB cytotoxicity assay, Sk-Hep-1; assay type: cell-based; settings: Homo sapiens, SK-HEP1
Source text: as §1, §2, §3, §4, §5

[1] = test system: erythroid Colony Forming Cells (CFCs); assay: Bone marrow suppression evaluation, colony assay, erythroid progenitors; assay type: cell-based; settings: human bone marrow progenitors, methylcellulose colony assay, 14-16 days
Description: (§6) An in vitro evaluation of the effect of the pharmaceutical compositions on human bone marrow cells was performed.
(§7) Protocol: Clonogenic progenitors of the erythroid (CFU-E, BFU-E), granulocyte-monocyte (CFU-GM) and multipotential lineages (CFU-GEMM) were set up in methylcellulose-based medium (R&D Systems) containing recombinant rhSCF (50 ng/mL), rhIL-3 (10 ng/mL), rhGM-CSF (10 ng/mL),and rhEpo (3 U/mL).
(§8) TLC388 HCl and Topotecan were diluted in DMSO and Lipotecan® was diluted in sterile water to provide the appropriate working stock concentrations. These working stock solutions were subsequently added to the methylcellulose-based colony assay medium described above. The colony assay mediums were set up in triplicate at 2×10^4 cells per culture medium.
(§9) The replicate culture mediums were incubated at 37° C. in 5% CO2 for 14-16 days. After this time, the resultant colonies in the culture medium were evaluated by a senior scientist in term of size and morphology.

DU145 = assay: SRB cytotoxicity assay, DU145; assay type: cell-based; settings: Homo sapiens, DU-145
Source text: as §1, §2, §3, §4, §5

myeloid CFCs = assay: Bone marrow suppression evaluation, colony assay, myeloid progenitors; assay type: cell-based; settings: human bone marrow progenitors, methylcellulose colony assay, 14-16 days
Description: as §6, §7, §8, §9

PC-3 = assay: SRB cytotoxicity assay, PC-3; assay type: cell-based; settings: Homo sapiens
Source text: as §1, §2, §3, §4, §5

Huh-7 = assay: SRB cytotoxicity assay, Huh-7; assay type: cell-based; settings: Homo sapiens
Source text: as §1, §2, §3, §4, §5

[2] = Aqueous solubility with mPEG2000-DSPE formulation; assay type: physicochemical; settings: water with mPEG2000-DSPE formulation, aqueous with cosolvent or surfactant or cyclodextrin
Description: In addition, the aqueous solubility of […] increased to 10 mg/mL with mPEG2000-DSPE formulation.

[3] = stated as known; cited from earlier work

SMILES: CC[C@@]1(O)C(=O)OCc2c1cc1n(c2=O)Cc2cc3c(CN(C)C)c(O)ccc3nc2-1 [Topotecan]
- IC50 (RG-2; RG-2, incubation 24 h): 7230 nM
- IC50 (RG-2; RG-2, incubation 48 h): 2780 nM
- IC50 (RG-2; RG-2, incubation 72 h): 3000 nM
- IC50 (LNCap; incubation 24 h): 14.9 µM
- IC50 (LNCap; incubation 48 h): 6.15 µM
- IC50 (LNCap; incubation 72 h): 2.59 µM
- IC50 (Hep3B; incubation 24 h): > 50 µM
- IC50 (Hep3B; incubation 48 h): 64.6 µM
- IC50 (Hep3B; incubation 72 h): 0.2 µM
- IC50 (HCT116): 8 nM
- IC50 (HepG2; HepG2, incubation 24 h): 57400 nM
- IC50 (HepG2; HepG2, incubation 48 h): 2730 nM
- IC50 (HepG2; HepG2, incubation 72 h): 686 nM
- IC50 (HT29): 38 nM
- IC50 (HepG2/2.2.15; HepG2/2.2.15, incubation 24 h): > 50 µM
- IC50 (HepG2/2.2.15; HepG2/2.2.15, incubation 48 h): 63.1 µM
- IC50 (HepG2/2.2.15; HepG2/2.2.15, incubation 72 h): 0.58 µM
- IC50 (Sk-Hep-1; Sk-Hep-1, incubation 24 h): 74.9 µM
- IC50 (Sk-Hep-1; Sk-Hep-1, incubation 48 h): 12.5 µM
- IC50 (Sk-Hep-1; Sk-Hep-1, incubation 72 h): 2.1 µM
- IC50 [1]: 11.8 nM
- IC50 (DU145; DU145, incubation 24 h): 2250 nM
- IC50 (DU145; DU145, incubation 48 h): 600 nM
- IC50 (DU145; DU145, incubation 72 h): 580 nM
- IC50 (myeloid CFCs): 8.7 nM
- IC50 (PC-3; PC-3, incubation 24 h): 131 µM
- IC50 (PC-3; PC-3, incubation 48 h): 18.1 µM
- IC50 (PC-3; PC-3, incubation 72 h): 3.58 µM
- IC50 (Huh-7; Huh-7, incubation 24 h): 65.3 µM
- IC50 (Huh-7; Huh-7, incubation 48 h): 5.05 µM
- IC50 (Huh-7; Huh-7, incubation 72 h): 2.8 µM

SMILES: CC[C@@]1(OC(=O)C(C)(C)ON=C2c3cc([N+](=O)[O-])cc([N+](=O)[O-])c3-c3c2cc([N+](=O)[O-])cc3[N+](=O)[O-])C(=O)OCc2c1cc1n(c2=O)Cc2cc3c(CN(C)C)c(O)ccc3nc2-1.Cl [TLC1988 HCl, (S)-10-[(dimethylamino)methyl]-4-ethyl-9-hydroxy-4-O-[2-methyl-2-(2″,4″,5″,7″-tetranitro-9″-fluorenylideneaminooxy)propionyl]-1H-pyrano[3′,4′:6,7]indolizino[1,2-b]quinoline-3,14-(4H,12H)-dione, monohydrochloride]
- solubility [2]: 10000 µg/mL
- stability in an alkaline condition [3]: unstable in an alkaline condition
